Assays:
[1] = tested on: anti-peptide IgG in plasma; test: Test Example 4: peptide-specific IgG titer pre and post vaccination, bead-based multiplexed Luminex assay; format: in vivo, human; settings: for Pre-vaccination IgG Negative (number of patients) / Pre-vaccination IgG Positive (number of patients): cut off 10 FIU; for Post vaccination IgG: number of (positive) patients among vaccinated: positive IgG response; for Pre-vaccination IgG Negative patients: number of 2,588 patients below 10 FIU; for Pre-vaccination IgG Positive patients: number of 2,588 patients with ≥10 FIU; for Post vaccination IgG: (positive) patients: number of vaccinated patients with positive IgG response; for Correlation between immune responses and OS: Negative (mOS): patients with negative post-vaccination IgG response to the peptide; for Correlation between immune responses and OS: Positive (mOS): patients with positive post-vaccination IgG response to the peptide
Protocol: As described previously, IgG titer specific to the antigen peptides in plasma was measured by bead-based multiplexed Luminex assay (Luminex, Austin, Tex.) before and after vaccination, i.e., at the end of each cycle or at the end of the clinical trial (Non-Patent Literature 4). In brief, 30 mL of peripheral blood was obtained before and after vaccination. Plasma was incubated with 100 μL of peptide-coupled color-coded beads for 2 hours at 25° C. on a plate shaker. After the incubation, the resultant mixture was washed with a vacuum manifold apparatus and incubated with 100 μL of biotinylated goat anti-human IgG (gamma chain-specific; Vector Laboratories, Burlingame, Calif.) for 1 hour at 25° C. on a plate shaker. The plate was then washed, followed by addition of 100 μL of streptavidin-PE (Life Technologies) to each well, and incubation for 30 minutes at 25° C. on a plate shaker. The resultant beads were washed 4 times, followed by addition of 100 μL of Tween-PBS to each well, and detection of fluorescence intensity units (FIU) on the beads using the Luminex system. The cutoff values of anti-peptide IgG were set to 10 FIU in 100-fold diluted samples.
Pre-vaccination peptide-specific IgG titers to 31 peptides were measured using a Luminex system. As a detectable IgG level, 10 FIU was employed as the cut off level, as reported previously (Noguchi M, et al., Cancer Immunol Immunother. 2013 May; 62(5): 919-29; Sasada T, et al., Current Medicinal Chemistry. 21: 2332-2345, 2014; Kibe S, et al., Cancer Immunology Research 2014; 2(12): 1154-62).
Post-vaccination lgG titers were measured at the ends of the first cycle and the second cycle.

cancer patients = test: Test Example 4: correlation between vaccination with individual peptides (or peptide sets) and OS, Cox proportional hazards regression; format: in vivo, human; settings: for HR: Cox proportional hazards regression, OS; for Correlation between immune responses and OS: Negative (mOS) / Correlation between immune responses and OS: Positive (mOS): Table 20, <64% neutrophil and ≥26% lymphocyte; for Correlation between immune responses and OS: Negative (mOS): vaccinated patients with negative IgG response; for Correlation between immune responses and OS: Positive (mOS): vaccinated patients with positive IgG response
Protocol: The Student's t-test and the chi-square test were used to compare quantitative and categorical variables, respectively. OS was calculated as the time in months from the date of clinical trial enrollment to death or to the date of last contact. Time-to-event endpoints were analyzed using the Kaplan-Meier method, and between-group comparison for OS was conducted using the log-rank test. Clinical efficacy of the individual peptides for OS was evaluated by univariate and multivariate analyses with the Cox proportional hazards regression model, and HR and 95% CI were calculated. All reported p-values were two-sided, and p-values less than 0.05 were considered significant. JMP version 12 or SAS version 9.4 software (SAS Institute Inc., Cary, N.C.) was used to perform all analyses.
Correlation levels of the 31 peptides for OS were evaluated by the Cox proportional hazards regression model.
Similarly, in the 2,085 advanced cancer patients (stage IV+recurrence) and the 503 non-advanced cancer patients (I-III stages) correlation levels of the 31 peptides for OS were evaluated by the Cox proportional hazards regression model. […]

[2] = Table 20, patients showing both <64% neutrophil and ≥26% lymphocyte
[3] = patients showing detectable levels
[4] = patients showing positive responses
[5] = 2,085 advanced cancer patients (stage IV+recurrence)
[6] = Table 18, all 2,588 cases, vaccinated vs non-vaccinated
[7] = Table 18, all 2,588 cases, median OS of patients under PPV containing the peptide
[8] = Table 18, all 2,588 cases, median OS of patients under PPV not containing the peptide
[9] = Table 19, 2,085 advanced cancer patients (stage IV+recurrence)
[10] = Table 19, 2,085 advanced cancer patients (stage IV+recurrence), PPV containing the peptide
[11] = Table 19, 2,085 advanced cancer patients (stage IV+recurrence), PPV not containing the peptide
[12] = Table 21, patients showing both <64% neutrophil and ≥26% lymphocyte
[13] = Table 21, patients showing both <64% neutrophil and ≥26% lymphocyte, PPV containing the peptide
[14] = Table 21, patients showing both <64% neutrophil and ≥26% lymphocyte, PPV not containing the peptide

Row | Sequence | Post vaccination IgG Median (FIU) [1, 2] | Pre-vaccination IgG Median (FIU) [1, 2] [FIU] | Pre-vaccination IgG Negative (number of patients) [1, 2] | Pre-vaccination IgG Positive (number of patients) [1, 2] | Post vaccination IgG: number of (positive) patients among vaccinated [1, 2] | Pre-vaccination IgG Negative patients [1] | Pre-vaccination IgG Positive patients [1] | Post vaccination IgG: (positive) patients [1] | Pre-vaccination IgG Median (FIU) [1, 3] [FIU] | Post vaccination IgG Median (FIU) [1, 4] | Correlation between immune responses and OS: Negative (mOS) [1] [months] | Correlation between immune responses and OS: Positive (mOS) [1] [months] | HR (cancer patients; [6]) | Vaccinate cases (mOS) (cancer patients; [7]) | Non-vaccinate cases (mOS) (cancer patients; [8]) | HR (cancer patients; [9]) | Vaccinate cases (mOS) (cancer patients; [10]) | Non-vaccinate cases (mOS) (cancer patients; [11]) | Correlation between immune responses and OS: Negative (mOS) (cancer patients) [months] | Correlation between immune responses and OS: Positive (mOS) (cancer patients) [months] | also measured
1 | ALVEFEDVL (listed as Homo sapiens) [HNRPL-140] | 7,150 FIU | 37 | 505 | 561 | 103(68) | 1,293 | 1,295 | 200(111) | 39 | 8,576 FIU | 9.8 | 23.9 | 0.8 | 200(12.9) M | 850(11.1) M | 0.8 | 162(12.1) M | 700(10.0) M | 10.4 | 26.2 | median OS of non-vaccinated cases (cancer patients; [5]): 10 months; median OS of vaccinated cases (cancer patients; [5]): 12.1 months; HR (cancer patients; [12]): 0.8; Vaccinate cases (mOS) (cancer patients; [13]): 103(19.0) M; Non-vaccinate cases (mOS) (cancer patients; [14]): 331(15.6) M; median OS of vaccinated cases (cancer patients; all 2,588 cases, PPV containing the peptide): 12.9 months; median OS of non-vaccinated cases (cancer patients; all 2,588 cases, PPV not containing the peptide): 11.1 months
2 | ASLDSDPWV (listed as Homo sapiens) [WHSC2-103] | 916 FIU | 40 | 381 | 685 | 289(105) | 915 | 1,673 | 729(222) | 43 | 827 FIU | 12.1 | 19.6 | 1.0 | 729(11.5) M | 1,465(11.6) M | 1.0 | 581(10.2) M | 1193(10.3) M | 14.4 | 27.1 | HR (cancer patients; [12]): 1.0; Vaccinate cases (mOS) (cancer patients; [13]): 289(17.6) M; Non-vaccinate cases (mOS) (cancer patients; [14]): 617(18.0) M
3 | AYDFLYNYL (listed as Homo sapiens) [SART2-161] | 775 FIU | 27 | 699 | 367 | 70(26) | 1,641 | 947 | 195(61) | 29 | 312 FIU | 12.6 | 20.6 | 1.0 | 195(12.3) M | 13,552(11.9) M | 0.9 | 156(10.7) M | 1090(10.4) M | 14.4 | 26.7 | HR (cancer patients; [12]): 1.1; Vaccinate cases (mOS) (cancer patients; [13]): 70(17.4) M; Non-vaccinate cases (mOS) (cancer patients; [14]): 555(18.4) M
4 | DLLSHAFFA (listed as Homo sapiens) [MAP-432] | 947 FIU | 52 | 549 | 517 | 133(45) | 1,280 | 1,308 | 375(97) | 51 | 757 FIU | 12.0 | 23.8 | 1.0 | 375(11.1) M | 1,087(11.9) M | 1.1 | 296(9.7) M | 892(10.8) M | 15.5 | 29.4 | HR (cancer patients; [12]): 1.1; Vaccinate cases (mOS) (cancer patients; [13]): 133(16.1) M; Non-vaccinate cases (mOS) (cancer patients; [14]): 460(18.5) M
5 | DVWSFGILL (listed as Homo sapiens) [Lck-422] | 446 FIU | 33 | 945 | 121 | 33(10) | 2,272 | 316 | 92(20) | 33 | 436 FIU | 11.7 | 18.5 | 1.2 | 92(12.0) M | 1,849(11.4) M | 1.1 | 83(11.7) M | 1493(10.2) M | 15.6 | 18.8 | positive rate of patients showing ≥10 FIU, pre-vaccination peptide-specific IgG ([1]; 2,588 patients, pre-vaccination): 12%; positive immune responses post-vaccination (positive of vaccinated cases) ([1]; patients who completed at least the first cycle): 20 of 92; HR (cancer patients; [12]): 1.1; Vaccinate cases (mOS) (cancer patients; [13]): 33(15.6) M; Non-vaccinate cases (mOS) (cancer patients; [14]): 775(17.5) M
6 | DYLRSVLEDF (listed as Homo sapiens) [Lck-488] | 11,894 FIU | 60 | 192 | 874 | 452(313) | 441 | 2,147 | 1103(635) | 60 | 11,594 FIU | 7.8 | 20.6 | 0.9 | 1,103(12.0) M | 447(12.0) M | 1.0 | 872(10.7) M | 374(10.1) M | 9.3 | 24.7 | HR (cancer patients; [12]): 1.0; Vaccinate cases (mOS) (cancer patients; [13]): 452(17.9) M; Non-vaccinate cases (mOS) (cancer patients; [14]): 173(19.7) M

Source: US20220233661A1, “METHOD OF DETERMINING ELIGIBILITY OF CANCER PATIENT FOR PEPTIDE VACCINE THERAPY” (priority 2019, published 2022)
